Assay results taken from ChEMBL document CHEMBL5465560, “Selectivity Literature for EUbOPEN Chemogenomic Library” (2024).

Legend:
[1] = molecular target: Serine/threonine-protein kinase mTOR (Homo sapiens, UniProt P42345); conditions: at 10 µM
[2] = molecular target: Receptor tyrosine-protein kinase erbB-4 (Homo sapiens, UniProt Q15303); assay: Selectivity interaction (Upstate Kinase Profiler service (Millipore)) EUB0000056c ERBB4; conditions: at 1 µM
[3] = molecular target: Interleukin-1 receptor-associated kinase 1 (Homo sapiens) (UniProt P51617); assay: Selectivity interaction (Upstate Kinase Profiler service (Millipore)) EUB0000056c IRAK1; conditions: at 1 µM
[4] = tested on: Proto-oncogene tyrosine-protein kinase receptor Ret (Homo sapiens), P07949 [M918T]; assay: (§1) Selectivity interaction (KinomeScan (DiscoverX)) EUB0000655a RET; conditions: at 10 µM
[5] = tested on: Proto-oncogene tyrosine-protein kinase receptor Ret (Homo sapiens), P07949 [V804L]; assay: as §1; conditions: at 10 µM
[6] = tested on: Proto-oncogene tyrosine-protein kinase receptor Ret (Homo sapiens), P07949 [V804M]; assay: as §1; conditions: at 10 µM
[7] = molecular target: Proto-oncogene tyrosine-protein kinase receptor Ret (Homo sapiens, UniProt P07949); assay: as §1; conditions: at 10 µM
[8] = molecular target: Phosphatidylinositol 4-kinase beta (Homo sapiens, UniProt Q9UBF8); assay: Selectivity interaction (KinomeScan (DiscoverX)) EUB0001079a PI4KB; conditions: at 1 µM
[9] = molecular target: Serine/threonine-protein kinase MRCK alpha (Homo sapiens) (UniProt Q5VT25); assay: Selectivity interaction (Kinase panel (Z-LYTE Assay)) EUB0001632a CDC42BPA; conditions: at 10 µM
[10] = molecular target: T1, Cyclin-G-associated kinase (Homo sapiens) (UniProt O14976); assay: Selectivity interaction (KinomeScan (DiscoverX)) EUB0000607a GAK; conditions: at 10 µM
T1 sequence (whole entry): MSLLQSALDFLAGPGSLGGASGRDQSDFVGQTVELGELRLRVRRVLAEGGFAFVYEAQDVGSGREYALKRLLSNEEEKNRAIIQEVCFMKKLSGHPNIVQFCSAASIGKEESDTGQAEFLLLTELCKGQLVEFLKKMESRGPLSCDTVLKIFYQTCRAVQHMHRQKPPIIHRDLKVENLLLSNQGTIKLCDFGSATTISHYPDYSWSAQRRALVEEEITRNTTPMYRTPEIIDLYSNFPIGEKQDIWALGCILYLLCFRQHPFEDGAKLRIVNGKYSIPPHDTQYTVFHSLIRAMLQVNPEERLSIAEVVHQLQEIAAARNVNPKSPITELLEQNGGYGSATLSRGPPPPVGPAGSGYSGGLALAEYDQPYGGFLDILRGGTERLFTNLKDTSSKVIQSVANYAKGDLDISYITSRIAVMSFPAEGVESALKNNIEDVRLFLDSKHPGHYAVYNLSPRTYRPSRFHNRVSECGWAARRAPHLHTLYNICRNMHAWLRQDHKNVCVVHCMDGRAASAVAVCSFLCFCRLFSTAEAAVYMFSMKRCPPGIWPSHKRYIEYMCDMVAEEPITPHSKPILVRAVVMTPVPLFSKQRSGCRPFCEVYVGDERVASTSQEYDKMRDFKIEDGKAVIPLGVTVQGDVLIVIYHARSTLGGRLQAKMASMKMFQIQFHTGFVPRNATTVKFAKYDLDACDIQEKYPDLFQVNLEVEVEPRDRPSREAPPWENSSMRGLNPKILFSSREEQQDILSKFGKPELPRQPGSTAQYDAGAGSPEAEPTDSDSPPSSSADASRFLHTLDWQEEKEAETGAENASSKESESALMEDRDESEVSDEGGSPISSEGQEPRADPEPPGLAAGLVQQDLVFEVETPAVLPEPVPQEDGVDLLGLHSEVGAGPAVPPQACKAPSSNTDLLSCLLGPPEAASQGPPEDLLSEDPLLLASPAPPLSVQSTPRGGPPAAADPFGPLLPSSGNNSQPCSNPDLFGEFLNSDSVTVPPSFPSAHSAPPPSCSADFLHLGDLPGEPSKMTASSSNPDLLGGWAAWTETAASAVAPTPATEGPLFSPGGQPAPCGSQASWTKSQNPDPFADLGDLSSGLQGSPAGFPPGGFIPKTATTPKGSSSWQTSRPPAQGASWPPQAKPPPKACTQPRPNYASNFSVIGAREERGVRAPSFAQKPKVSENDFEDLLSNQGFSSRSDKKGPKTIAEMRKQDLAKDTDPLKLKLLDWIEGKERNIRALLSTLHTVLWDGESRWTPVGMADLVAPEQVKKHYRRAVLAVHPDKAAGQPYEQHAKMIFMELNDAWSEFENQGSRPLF

[11] = tested on: Receptor-type tyrosine-protein kinase FLT3 (Homo sapiens), P36888 [UNDEFINED MUTATION]; assay: Selectivity interaction (KinomeScan (DiscoverX)) EUB0000695a FLT3; conditions: at 100 nM
[12] = molecular target: Phosphatidylinositol 4-phosphate 5-kinase type-1 gamma (Homo sapiens) (UniProt O60331); assay: Selectivity interaction (KinomeScan (DiscoverX)) EUB0000595a PIP5K1C; conditions: at 10 µM
[13] = molecular target: MAP kinase-activated protein kinase 2 (Homo sapiens, UniProt P49137); conditions: at 10 µM
[14] = molecular target: Mitogen-activated protein kinase 10 (Homo sapiens, UniProt P53779); assay: Selectivity interaction (KinomeScan (DiscoverX)) EUB0000045b MAPK10
[15] = molecular target: cAMP-dependent protein kinase catalytic subunit alpha (Homo sapiens, UniProt P17612); assay: Selectivity interaction (KinomeScan (DiscoverX)) EUB0000045b PRKACA
[16] = molecular target: Calcium/calmodulin-dependent protein kinase kinase 2 (Homo sapiens) (UniProt Q96RR4); assay: Selectivity interaction (KinomeScan (DiscoverX)) EUB0000618a CAMKK2; conditions: at 10 µM
[17] = molecular target: Phosphatidylinositol 4,5-bisphosphate 3-kinase catalytic subunit alpha isoform (Homo sapiens) (UniProt P42336); assay: (§2) Selectivity interaction (KinomeScan (DiscoverX)) EUB0001619a PIK3CA; conditions: at 1 µM
[18] = tested on: Phosphatidylinositol 4,5-bisphosphate 3-kinase catalytic subunit alpha isoform (Homo sapiens), P42336 [C420R]; assay: as §2; conditions: at 1 µM
[19] = tested on: Phosphatidylinositol 4,5-bisphosphate 3-kinase catalytic subunit alpha isoform (Homo sapiens), P42336 [E542K]; assay: as §2; conditions: at 1 µM
[20] = tested on: Phosphatidylinositol 4,5-bisphosphate 3-kinase catalytic subunit alpha isoform (Homo sapiens), P42336 [E545A]; assay: as §2; conditions: at 1 µM
[21] = tested on: Phosphatidylinositol 4,5-bisphosphate 3-kinase catalytic subunit alpha isoform (Homo sapiens), P42336 [E545K]; assay: as §2; conditions: at 1 µM
[22] = tested on: Phosphatidylinositol 4,5-bisphosphate 3-kinase catalytic subunit alpha isoform (Homo sapiens), P42336 [H1047L]; assay: as §2; conditions: at 1 µM
[23] = tested on: Phosphatidylinositol 4,5-bisphosphate 3-kinase catalytic subunit alpha isoform (Homo sapiens), P42336 [H1047Y]; assay: as §2; conditions: at 1 µM
[24] = tested on: Phosphatidylinositol 4,5-bisphosphate 3-kinase catalytic subunit alpha isoform (Homo sapiens), P42336 [I800L]; assay: as §2; conditions: at 1 µM
[25] = tested on: Phosphatidylinositol 4,5-bisphosphate 3-kinase catalytic subunit alpha isoform (Homo sapiens), P42336 [M1043I]; assay: as §2; conditions: at 1 µM
[26] = tested on: Phosphatidylinositol 4,5-bisphosphate 3-kinase catalytic subunit alpha isoform (Homo sapiens), P42336 [Q546K]; assay: as §2; conditions: at 1 µM

Sequence of Mitogen-activated protein kinase 10 (P53779 whole entry): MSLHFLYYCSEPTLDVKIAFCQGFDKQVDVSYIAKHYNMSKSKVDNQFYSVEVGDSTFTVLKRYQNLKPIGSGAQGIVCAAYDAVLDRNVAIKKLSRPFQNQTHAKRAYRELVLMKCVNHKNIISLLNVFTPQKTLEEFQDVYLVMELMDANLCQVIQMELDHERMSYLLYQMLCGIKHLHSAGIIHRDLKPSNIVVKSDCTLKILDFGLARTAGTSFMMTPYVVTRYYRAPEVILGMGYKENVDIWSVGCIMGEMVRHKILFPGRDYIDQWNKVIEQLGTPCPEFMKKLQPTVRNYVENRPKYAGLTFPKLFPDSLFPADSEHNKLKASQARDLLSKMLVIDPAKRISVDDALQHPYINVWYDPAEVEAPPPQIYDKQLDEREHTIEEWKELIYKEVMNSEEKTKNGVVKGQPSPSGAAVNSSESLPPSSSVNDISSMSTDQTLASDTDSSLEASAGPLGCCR
Sequence of Phosphatidylinositol 4,5-bisphosphate 3-kinase catalytic subunit alpha isoform (Homo sapiens), P42336 [H1047Y] (P42336 whole entry H1047Y, canonical isoform): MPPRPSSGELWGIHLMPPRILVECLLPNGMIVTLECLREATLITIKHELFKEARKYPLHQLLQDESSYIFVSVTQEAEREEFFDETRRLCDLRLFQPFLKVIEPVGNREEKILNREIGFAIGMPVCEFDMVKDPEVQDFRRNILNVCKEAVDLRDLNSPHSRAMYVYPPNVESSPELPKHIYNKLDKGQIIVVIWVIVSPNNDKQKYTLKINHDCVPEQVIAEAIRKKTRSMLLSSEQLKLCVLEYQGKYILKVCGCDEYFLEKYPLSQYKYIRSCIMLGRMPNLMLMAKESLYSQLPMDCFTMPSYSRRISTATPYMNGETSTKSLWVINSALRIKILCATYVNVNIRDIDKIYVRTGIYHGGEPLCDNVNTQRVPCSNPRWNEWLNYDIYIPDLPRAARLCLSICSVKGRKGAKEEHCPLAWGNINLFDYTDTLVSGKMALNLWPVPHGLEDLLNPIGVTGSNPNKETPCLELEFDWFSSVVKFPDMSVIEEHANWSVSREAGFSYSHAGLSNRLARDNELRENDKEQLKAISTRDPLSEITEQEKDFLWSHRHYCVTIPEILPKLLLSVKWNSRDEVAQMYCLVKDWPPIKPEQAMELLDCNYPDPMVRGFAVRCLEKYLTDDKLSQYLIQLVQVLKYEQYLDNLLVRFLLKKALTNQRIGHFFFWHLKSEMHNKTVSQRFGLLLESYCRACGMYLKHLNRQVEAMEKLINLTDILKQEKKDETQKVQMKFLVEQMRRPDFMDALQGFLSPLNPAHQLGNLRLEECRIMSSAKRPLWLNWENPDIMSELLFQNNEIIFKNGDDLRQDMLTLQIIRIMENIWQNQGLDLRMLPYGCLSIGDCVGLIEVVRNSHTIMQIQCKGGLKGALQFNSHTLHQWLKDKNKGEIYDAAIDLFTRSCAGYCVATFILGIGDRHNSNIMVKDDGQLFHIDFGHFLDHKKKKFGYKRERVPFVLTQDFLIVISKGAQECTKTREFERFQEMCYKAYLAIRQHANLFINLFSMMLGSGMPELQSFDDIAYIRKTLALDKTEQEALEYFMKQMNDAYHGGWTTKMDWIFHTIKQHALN
Sequence of Phosphatidylinositol 4,5-bisphosphate 3-kinase catalytic subunit alpha isoform (Homo sapiens), P42336 [E545K] (P42336 whole entry E545K, canonical isoform): as the sequence (P42336 whole entry H1047Y, canonical isoform) above, with E545K, Y1047H counted along it
Sequence of Phosphatidylinositol 4,5-bisphosphate 3-kinase catalytic subunit alpha isoform (Homo sapiens), P42336 [M1043I] (P42336 whole entry M1043I, canonical isoform): as the sequence (P42336 whole entry H1047Y, canonical isoform) above, with M1043I, Y1047H counted along it
Sequence of Phosphatidylinositol 4,5-bisphosphate 3-kinase catalytic subunit alpha isoform (Homo sapiens), P42336 [C420R] (P42336 whole entry C420R, canonical isoform): as the sequence (P42336 whole entry H1047Y, canonical isoform) above, with C420R, Y1047H counted along it

CCC(=O)N1CCN(c2ccc(-n3c(=O)ccc4cnc5ccc(-c6cnc7ccccc7c6)cc5c43)cc2C(F)(F)F)CC1 gave a % of control [1] of 0%.
For Cc1ccc(-c2ccc3c(ccc4sc5c(c43)NC[C@@H](C)NC5=O)n2)cn1, the % of inhibition [2] was 12% and the % of inhibition [3] was 22%.
CN(C)CCOc1ccc(-c2nc(-c3ccncc3)c(-c3ccc4c(c3)CC/C4=N\O)[nH]2)cc1 was tested, and the % of control [4] was 88%, the % of control [5] was 100% and the % of control [6] was 92%. The % of control [7] was 100%.
In the case of Nc1cnc(N2CCc3cc(S(=O)(=O)Nc4c(F)cc(Cl)cc4F)cc(N4CCCC4=O)c32)nc1 [TP-020n], the % of control [8] is reported as 93%.
With Cn1cc(-n2cnc3c(NCc4nc5cc(Cl)c(Cl)cc5[nH]4)nc(N4CCOCC4)nc32)cn1 the % of control [9] was -5.27%.
CNC(=O)Nc1ccc(-c2nc(N3CC4CCC(C3)O4)c3cnn(C4CCC5(CC4)OCCO5)c3n2)cc1 showed a % of control [10] of 75%.
Cc1cc(F)c(C(=O)Nc2cccc(-c3nncn3C(C)C)n2)cc1-n1cnc(C2CC2)c1 was tested, and the % of control [11] was 76%.
COCC(=O)NC/C=C/c1ccc2ncnc(Nc3ccc(Oc4ccc(C)nc4)c(C)c3)c2c1 [CP-724714] was tested, and the % of control [12] was 93% and the % of control [13] was 100%.
Molecule C=CC(=O)Nc1cc(-n2c(=O)ccc3cnc4ccc(-c5ccc(NS(C)(=O)=O)cc5)cc4c32)ccc1C has a % of control ([14]; at 1 µM) of 100%, a % of control ([14]; at 10 µM) of 20% and a % of control ([15]; at 1 µM) of 83%. The % of control ([15]; at 10 µM) was 100%.
O[C@H]1CC[C@H](Nc2ncc3nc(Nc4c(F)cc(F)cc4F)n([C@H]4CCOC4)c3n2)CC1 showed a % of control [16] of 94%.
N#Cc1cccc(-c2c[nH]c3ncnc(N4CCOCC4)c23)c1 showed a % of control [17] of 100%, a % of control [18] of 95% and a % of control [19] of 90%. The % of control [20] was 100%, the % of control [21] was 96% and the % of control [22] was 90%. It also gave a % of control [23] of 76%, a % of control [24] of 88% and a % of control [25] of 100%. For the same molecule, the % of control [26] was 97%.
